Biological target: T1, Or10a/Orco (Drosophila melanogaster, UniProt Q9VYZ1)
T1 construct: his-tag; made in house; host or cells: baculovirus-infected Sf9 cells
T1 sequence (Q9VYZ1 1-406): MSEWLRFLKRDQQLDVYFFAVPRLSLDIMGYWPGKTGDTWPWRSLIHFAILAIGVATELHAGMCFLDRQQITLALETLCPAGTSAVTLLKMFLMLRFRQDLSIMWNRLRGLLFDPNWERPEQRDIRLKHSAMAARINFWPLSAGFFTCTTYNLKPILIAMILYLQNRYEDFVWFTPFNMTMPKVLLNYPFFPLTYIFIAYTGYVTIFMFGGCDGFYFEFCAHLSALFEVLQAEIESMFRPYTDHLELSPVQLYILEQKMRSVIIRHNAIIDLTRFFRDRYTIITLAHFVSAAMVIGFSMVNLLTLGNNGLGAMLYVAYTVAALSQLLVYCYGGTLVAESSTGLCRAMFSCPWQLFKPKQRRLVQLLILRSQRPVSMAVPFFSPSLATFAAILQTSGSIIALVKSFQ
T1 sequence (Q9VNB5 1-486 partner): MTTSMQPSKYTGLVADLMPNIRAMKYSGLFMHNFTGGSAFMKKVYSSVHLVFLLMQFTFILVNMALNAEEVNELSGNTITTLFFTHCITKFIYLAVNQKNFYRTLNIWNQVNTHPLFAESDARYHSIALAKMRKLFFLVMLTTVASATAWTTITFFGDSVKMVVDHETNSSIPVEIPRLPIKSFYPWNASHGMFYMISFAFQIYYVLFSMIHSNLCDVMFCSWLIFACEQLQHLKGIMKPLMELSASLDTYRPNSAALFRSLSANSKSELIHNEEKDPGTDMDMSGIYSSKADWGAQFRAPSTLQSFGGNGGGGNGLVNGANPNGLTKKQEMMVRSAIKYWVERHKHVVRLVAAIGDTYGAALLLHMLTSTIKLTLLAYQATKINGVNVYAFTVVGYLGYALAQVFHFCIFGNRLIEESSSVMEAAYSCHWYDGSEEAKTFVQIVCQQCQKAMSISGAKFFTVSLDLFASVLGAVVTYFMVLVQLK
Assay: EIS sensor, Or10a/Orco liposomes on gold electrode
Format: biochemical
Procedure: Prior to their use, liposomes were defrosted on ice and then destabilized by incubating with 0.2% CHAPS for 15 min at room temperature. Then 200 μg of purified odorant receptor^28 was added to 1 mg of liposomes and rotated at 10 rpm for 1 h at room temperature. Excess detergent was removed by four additions of 25 mg of Bio-Beads SM-2 (Bio-Rad, USA) and incubation at 4° C. for 30 min, 2 h, overnight and a further 2 h respectively. The Bio-Beads were removed after each incubation period. The OrX or OrX/Orco integrated liposomes were pelleted by centrifugation at 100,000 g for 1 h, and were resuspended in 500 μL of rehydration buffer. Integration of OrXs and Orco into liposomes was assessed by density gradient ultracentrifugation (DGU) using Accudenz (Accurate Chemical & Scientific Corporation, USA). The integrated liposomes were brought to 40% Accudenz by the addition of an equal volume of 80% Accudenz solution, placed at the bottom of an ultra-centrifugation tube, and overlaid with 30% Accudenz solution, and DGU buffer (25 mM HEPES pH 7.5, 100 mM NaCl, 10% glycerol). The sample was then centrifuged at 100,000 g for 4 h at 4° C. Liposomes will float to the top of the gradient after Accudenz DGU due to their low density.
2 mM MHA was prepared by dissolving 1.36 μl of MHA in 5 ml ethanol (AR grade). The cleaned electrodes were immersed into MHA solution and incubated overnight. The next day, all the electrodes were washed with ethanol and deionised water thoroughly in order to remove the unreacted acid. A 2:1 mol:mol ratio of EDC:NHS (100 mM EDC, 50 mM NHS) was prepared in 2 ml PBS (pH=6.5) solution. Then, the electrodes were covered in 100 μl of this solution at 28° C. for an hour to activate the carboxylic (COOH) groups of the MHA.
PBS solution was prepared by immersing one tablet of PBS in 200 ml of milli-Q water (according to manufacturers instructions) and filtered using 0.2-μm syringe filter. The pH of the prepared buffer solution was measured with a pH meter. OrX liposomes or OrX/Orco liposomes were diluted 100 fold in PBS buffer solution (pH=7.4) and the COOH-activated electrodes were incubated in that buffer solution at room temperature for one hour. Then, the electrodes were washed extensively with PBS buffer solution to wash out any unbound liposomes.
PBS (pH=7.4) was used as an electrolyte to conduct electrochemical measurements. PBS buffer was degassed for about 30 minutes prior to electrochemical measurements. […] OR immobilized electrodes were incubated in relevant odorant solution for ˜30 minutes each and washed gently with PBS before EIS measurements. […]

Structure (SMILES): COC(=O)c1ccccc1O [methyl salicylate]
- limit of detection (EIS dose response, ligand 1 aM to 100 μM): 1 fM
- EC50 (Table 1, approximate): ~1 pM
- Sensitivity limit (Table 1, * estimated visually from dose response graph): ~10^−15 M*
- Detection Range (Table 3): 10^−15-10^−7 M

Source: US20210255184A1, “Biosensor Device and Methods” (The New Zealand Institute for Plant and Food Research …, priority 2018, published 2021)
